In the supplement of paper PMC10627819:

Assays:
Assay in all cases: fitness (endpoint OD595 vs no drug) (fraction); higher = more growth
S. pneumoniae D39V = tested on: S. pneumoniae D39V
Procedure, shortened: (§1)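 With the first reading as background, OD595 was measured every 30 min for 14 h in 384-well plates kept at 37 °C and inoculated at OD595 0.01. TSB, LB Lennox or CY was the medium. Fitness is the optical density at the transition into stationary phase divided by the robust mean of no-drug control wells, with a cap of 1.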

B. subtilis 168 = tested on: B. subtilis 168
Procedure, shortened: as §1

S. aureus DSM 20231 = tested on: S. aureus DSM 20231
Procedure, shortened: as §1
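Further: OD595 on entry to stationary phase over no-drug wells; at most 1.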

CN(C)[C@@H]1C(O)=C(C(N)=O)C(=O)[C@@]2(O)C(O)=C3C(=O)c4c(O)ccc(Cl)c4[C@@](C)(O)[C@H]3C[C@@H]12 [Chlortetracycline] + Cc1ncc([N+](=O)[O-])n1CCO [Metronidazole]
Settings | fitness
B. subtilis 168, first compound 0.0475 µg/mL, partner 0.625 µg/mL | 0.978
B. subtilis 168, first compound 0.0475 µg/mL, partner 1.25 µg/mL | 0.925
B. subtilis 168, first compound 0.0475 µg/mL, partner 2.5 µg/mL | 0.959
B. subtilis 168, first compound 0.095 µg/mL, partner 0.625 µg/mL | 0.888
B. subtilis 168, first compound 0.095 µg/mL, partner 1.25 µg/mL | 0.789
B. subtilis 168, first compound 0.095 µg/mL, partner 2.5 µg/mL | 0.822
B. subtilis 168, first compound 0.19 µg/mL, partner 0.625 µg/mL | 0.619
B. subtilis 168, first compound 0.19 µg/mL, partner 1.25 µg/mL | 0.586
B. subtilis 168, first compound 0.19 µg/mL, partner 2.5 µg/mL | 0.536
S. aureus DSM 20231, first compound 0.048 µg/mL, partner 0.625 µg/mL | 0.196
S. aureus DSM 20231, first compound 0.048 µg/mL, partner 1.25 µg/mL | 0.144
S. aureus DSM 20231, first compound 0.048 µg/mL, partner 2.5 µg/mL | 0.124
S. pneumoniae D39V, first compound 0.012 µg/mL, partner 1.073 µg/mL | 0.958
S. pneumoniae D39V, first compound 0.012 µg/mL, partner 4.29 µg/mL | 0.904
S. pneumoniae D39V, first compound 0.024 µg/mL, partner 1.073 µg/mL | 0.972
S. pneumoniae D39V, first compound 0.024 µg/mL, partner 4.29 µg/mL | 0.916
S. pneumoniae D39V, first compound 0.048 µg/mL, partner 1.073 µg/mL | 0.855
S. pneumoniae D39V, first compound 0.048 µg/mL, partner 2.145 µg/mL | 0.873
S. pneumoniae D39V, first compound 0.048 µg/mL, partner 4.29 µg/mL | 0.872
S. pneumoniae D39V, first compound 0.375 µg/mL, partner 1.25 µg/mL | 0.0344
S. pneumoniae D39V, first compound 0.375 µg/mL, partner 2.5 µg/mL | 0.0383
S. pneumoniae D39V, first compound 0.375 µg/mL, partner 5 µg/mL | 0.0668
S. pneumoniae D39V, first compound 0.75 µg/mL, partner 1.25 µg/mL | 0.0404
S. pneumoniae D39V, first compound 0.75 µg/mL, partner 2.5 µg/mL | 0.045
S. pneumoniae D39V, first compound 0.75 µg/mL, partner 5 µg/mL | 0.0953
S. pneumoniae D39V, first compound 1.5 µg/mL, partner 1.25 µg/mL | 0.0574
S. pneumoniae D39V, first compound 1.5 µg/mL, partner 2.5 µg/mL | 0.0668
S. pneumoniae D39V, first compound 1.5 µg/mL, partner 5 µg/mL | 0.0748

S. aureus DSM 20231, first compound 0.006 µg/mL, one replicate
Settings | fitness
partner 0.625 µg/mL | 0.807
partner 1.25 µg/mL | 0.8
partner 2.5 µg/mL | 0.833

CN(C)[C@@H]1C(O)=C(C(N)=O)C(=O)[C@@]2(O)C(O)=C3C(=O)c4c(O)ccc(Cl)c4[C@@](C)(O)[C@H]3C[C@@H]12 [Chlortetracycline] + C[n+]1ccc(-c2cc[n+](C)cc2)cc1 [Paraquat]
fitness, one replicate
Settings | partner 1.25 µg/mL | partner 1.5 µg/mL | partner 2.5 µg/mL | partner 3 µg/mL | partner 5 µg/mL | partner 6 µg/mL
S. aureus DSM 20231, first compound 0.006 µg/mL | 0.72 | – | 0.718 | – | 0.704 | –
S. pneumoniae D39V, first compound 0.012 µg/mL | – | 0.976 | – | ≥ 1 | – | ≥ 1
S. pneumoniae D39V, first compound 0.024 µg/mL | – | 0.941 | – | 0.95 | – | 0.987
S. pneumoniae D39V, first compound 0.048 µg/mL | – | 0.852 | – | 0.868 | – | 0.875

fitness
Settings | partner 1.25 µg/mL | partner 1.5 µg/mL | partner 2.5 µg/mL | partner 3 µg/mL | partner 5 µg/mL | partner 6 µg/mL
B. subtilis 168, first compound 0.0475 µg/mL | 0.92 | – | 0.877 | – | 0.839 | –
B. subtilis 168, first compound 0.095 µg/mL | 0.805 | – | 0.748 | – | 0.715 | –
B. subtilis 168, first compound 0.19 µg/mL | 0.609 | – | 0.524 | – | 0.429 | –
S. aureus DSM 20231, first compound 0.012 µg/mL | 0.568 | – | 0.597 | – | 0.574 | –
S. aureus DSM 20231, first compound 0.024 µg/mL | 0.266 | – | 0.294 | – | 0.261 | –
S. aureus DSM 20231, first compound 0.048 µg/mL | 0.0591 | – | 0.169 | – | 0.0904 | –
S. pneumoniae D39V, first compound 0.375 µg/mL | – | 0.073 | – | 0.0531 | – | 0.0597
S. pneumoniae D39V, first compound 0.75 µg/mL | – | 0.055 | – | 0.0649 | – | 0.0514
S. pneumoniae D39V, first compound 1.5 µg/mL | – | 0.048 | – | 0.0551 | – | 0.0491
